These results are taken from patent publication US20200217837A1, “CHROMATIN PROTECTIVE THERAPEUTICS AND CHROMATIN HETEROGENEITY” (Northwestern University, priority 2016, published 2020).

In data set [1] the test system is cancer cell lines. The data set is described as follows: Live cell PWS of chromatin folding/heterogeneity (D, Σ). In kind it is cell-based. The note with it: for capacity to reduce chromatin folding (D↓, Σ↓): PWS on live cells; for regulation of chromatin topology / heterogeneity: live cells, LC-PWS, within minutes of treatment where stated; for chromatin heterogeneity Σ: within 30 min, p<0.01; for structural alteration of chromatin folding: five cell line models (A2780, M248, MDA-MB-231, MES-SA, MX2). As to the method:
Test compounds were screened for CPT activity using live cell PWS imaging. Control and 30-60 minute CPT-treated cells were imaged with live cell PWS to determine their effect on nuclear nanoscale heterogeneity (See FIG. 11A for exemplary tested compounds). […]

Data set [2] deals with pancreatic ductal carcinoma PDX model. Nature of the data set: In vivo validation of CPT on patient derived xenographs. As to conditions: single agent treatment. On the procedure:
The cell lines were treated with standard (IC50) doses of commonly used chemotherapy drugs (5-FU, Paclitaxel, Oxaliplatin, Docetaxel, Gemcitabine, FOLFIRI). […] Experiments were conducted during development of embodiments herein to test CPT in vivo on patient derived xenographs (PDX) of pancreatic ductal carcinoma (FIG. 15i).

In the next data set the test system is A2780.m248. Nature of the data set: Cell survival by surface coverage (% inhibition / cell death). It counts as cell-based. As to conditions: Ovarian A2780.m248; after 48 hours, surface coverage relative to control. On the procedure: These compounds were tested in combination with the chemotherapy drug paclitaxel.
The subject of data set [3] is A2780.m248 ovarian cancer cells. The data set is described as follows: Live cell PWS screen for CPT activity (mean nuclear sigma). In kind it is cell-based. As to conditions: 30-60 minute treated cells.
A further data set relates to A2780. The data set is described as follows: Cell survival by surface coverage (% inhibition / cell death). The note with it: Ovarian A2780; after 48 hours, surface coverage relative to control.
Data set [4] concerns cancer cell lines. The data set is described as follows: Single-cell sequencing of transcriptional heterogeneity. In kind it is cell-based. An excerpt:
Although partial regulation of folding is achieved through molecular-specific chromatin remodelers (Refs. 12c, 40c; incorporated by reference in their entireties) (CTCF, SWI/SNF, histone modifications), a more efficient global regulation is governed by physico-chemical mechanisms (FIG. 16). A cardiovascular drug digoxin provides one such example.

Data set [5] concerns HeLa cells. Nature of the data set: Live cell PWS, mean nuclear Σ (chromatin nano-architecture). It counts as cell-based. As to the method: (§1) Prior to imaging, media within petri dishes was exchanged with fresh, RPMI-1640 Media (lacking phenol red pH indicator, purchased from Life Technologies) supplemented with 10% FBS (Sigma Aldrich, St. Louis Mo.). For DNA fragmentation experiments, live cell PWS images were acquired at room temperature (22° C.) and in trace CO2 (open air) conditions for cells subsequently stained with Hoechst 33342. During acquisition of time series data (UV and Controls, metabolic perturbation), cells were maintained at physiological conditions for the duration of the experiment. For imaging, a reference scattering spectra was obtained from an open surface of the substrate coverslip immersed in media prior to any cellular imaging to normalize the intensity of light scattered for each wavelength at each pixel. Σ is defined as the spectral standard deviation of our measured reflectance intensity normalized to this reference scattering spectra from the substrate-media interface. […] For Hoechst induced DNA damage experiments, significance was determined using Student's T-test with unpaired, unequal variance on nuclear Δ(Σ) between the conditions indicated in the experiment in both Mathematica v.10 and Microsoft Excel (Microsoft, Redmond, Wash.) with n=146 for Hoechst stained HeLa cells from 11 replicates and n=87 for Hoechst stained CHO cells from 5 replicates. […]

Data set [6] concerns CHO cells. The description is as above. In kind it is cell-based, Chinese Ovarian Hamster. As to the method: as §1
For data set [7], the system named is HeLa cells. Nature of the data set: γ-H2A.X immunofluorescence (DNA fragmentation). In kind it is cell-based. The note with it: Hoechst-stained cells after UV excitation versus mock-stained. As to the method:
Co-registration of live cell PWS imaging and DNA strand damage using phospho-histone H2A.X was performed by immunofluorescent staining on three independent experiments. Cells were fixed for 20 min with 4% paraformaldehyde at room temperature, washed twice with phosphate buffered saline and a permeabilization/blocking step was performed with 0.1% Triton X-100 in 1% bovine serum albumin (Sigma Aldrich, St. Louis Mo.) for 20 min. Cells were again washed twice with PBS and then incubated with AlexaFluor 488 conjugated to anti-γH2A.X (serine 139 residue) rabbit monoclonal antibody (Cell Signaling, Beverly, […].) for 30 minutes. Following incubation with the antibody, cells were imaged using the FITC-EGFP filter on the live cell PWS microscope.

For another data set, the system named is MES-SA. Nature of the data set: Cell survival by surface coverage (% inhibition). The note with it: Sarcoma MES-SA. It counts as cell-based.
For the next data set, the system named is MES-SA MX2. Nature of the data set: Cell survival by surface coverage (% inhibition). In kind it is cell-based. As to conditions: Sarcoma MES-SA MX2.
In data set [8] the test system is HeLa cells. Nature of the data set: Mitochondrial membrane potential by TMRE flow cytometry. In kind it is cell-based. The note with it: 10 μM CCCP. On the procedure:
(§2) HeLa and CHO cells were grown and prepared for live cell imaging as previously described. Cell measurements for a single field of view were sequentially obtained for 3 minutes prior to treatment with CCCP. HeLa (n=31 from 6 independent experiments) and CHO (n=159 from 5 independent experiments) cells were treated with 10 μM for 15 minutes and imaged before and after treatment. Mock treated cells were incubated with 0.01% DMSO to account for the effect of DMSO solvent on the cells. […] Mitochondrial membrane potential ΔΨm was measured by flow cytometry (BD LSRII at the Northwestern Flow Cytometry Core) for tetramethylrhodamine (TMRE, purchased from Life Technologies, Carlsbad Calif.) stained cells. In brief, cells were trypsinized and immediately stained with 50 nM of TMRE for 30 minutes. Cells were washed twice with PBS after staining and suspended in 1 ml of PBS. CCCP treated cells were treated for 15 minutes to replicate conditions during live cell live cell PWS imaging. At least 20,000 cells were selected by forward and side scattering channels for each group, with a double elimination of doublets from the final analysis. Mean TMRE intensity from each replicate population was used for representative comparison between treated and untreated groups.
A general note: Flow cytometry measures light scatter and fluorescence of single cells or particles in a stream.

In data set [9] the test system is CHO cells. Described as above. In kind it is cell-based, Chinese Ovarian Hamster. The note with it: 10 μM CCCP. As to the method: as §2

Entries after “also recorded” stand apart in the source; their conditions may differ.

`Cn1cc(C2=C(c3coc4ccc(F)cc34)C(=O)NC2=O)c2cc3c(cc21)OCO3` [9-ING-41]: the “capacity to reduce chromatin folding (D↓, Σ↓)” value with cancer cell lines [1] is “reduce chromatin folding”. Moreover, in the data set on cancer cell lines [1] (colonic, pancreatic, ovarian, and mesothelioma lines), the “Σ / CPT strength in multiple cancer cell lines” value is listed as “strong CPT; also recorded: decreases Σ”. Further, in [2], the tumor size result is “continued to expand in size”.

`CC(=O)Oc1ccccc1C(=O)O` [aspirin]: in the data set with cancer cell lines [1], the “capacity to reduce chromatin folding (D↓, Σ↓)” value is on record as “reduce chromatin folding” and the “regulation of chromatin topology / heterogeneity” value was “potent regulators of chromatin topology; also recorded: global regulators of chromatin heterogeneity”.

On to `CCCC(CCC)C(=O)O` [valproic acid], for which the “chromatin heterogeneity Σ” value with cancer cell lines [1] is on record as “Σ↓”.

In the case of `Cc1ccc(-c2cc(C(F)(F)F)nn2-c2ccc(S(N)(=O)=O)cc2)cc1` [Celecoxib], in the data set on A2780.m248, the “% Inhibition” value is given as 0%. Further, in [3], the mean nuclear sigma entry is given as “decrease in mean nuclear sigma”. In the data set on cancer cell lines [1], the “capacity to reduce chromatin folding (D↓, Σ↓)” value is “reduce chromatin folding”; the “regulation of chromatin topology / heterogeneity” value is recorded as “homogenization of chromatin; also recorded: potent regulators of chromatin topology; also recorded: global regulators of chromatin heterogeneity”; the “chromatin heterogeneity Σ” value was “Σ↓”. In addition, the “% Inhibition” value with A2780 worked out at 0%.

Turning to `C[C@H]1O[C@@H](O[C@H]2[C@@H](O)C[C@H](O[C@H]3[C@@H](O)C[C@H](O[C@H]4CC[C@@]5(C)[C@H](CC[C@@H]6[C@@H]5C[C@@H](O)[C@]5(C)[C@@H](C7=CC(=O)OC7)CC[C@]65O)C4)O[C@@H]3C)O[C@@H]2C)C[C@H](O)[C@@H]1O` [Digoxin, digoxin], the mean nuclear sigma entry in [3] was “decrease in mean nuclear sigma”. Moreover, in the data set with cancer cell lines [1], the “capacity to reduce chromatin folding (D↓, Σ↓)” value is on record as “reduce chromatin folding”; the “structural alteration of chromatin folding” value is on record as “decreases chromatin folding”; the “regulation of chromatin topology / heterogeneity” value is given as “homogenization of chromatin; also recorded: potent regulators of chromatin topology; also recorded: global regulators of chromatin heterogeneity”; the “chromatin heterogeneity Σ” value is “Σ↓”. In addition, the “chromatin D” value with cancer cell lines [1] (cell culture, within 30 min after application) is reported as “D↓”. Moreover, in the data set with cancer cell lines [4], the “transcriptional divergence and heterogeneity” value was “lower intracellular transcriptional divergence and intercellular heterogeneity”.

With `CC1=C(CC(=O)O)c2cc(F)ccc2/C1=C\c1ccc([S+](C)[O-])cc1` (stereo not shown) [sulindac], in the data set with cancer cell lines [1], the “chromatin heterogeneity Σ” value was “not”.

Take `CC(C)[C@@H]1NC(=O)[C@H](C)OC(=O)[C@@H](C(C)C)NC(=O)[C@@H](C(C)C)OC(=O)[C@H](C(C)C)NC(=O)[C@H](C)OC(=O)[C@@H](C(C)C)NC(=O)[C@@H](C(C)C)OC(=O)[C@H](C(C)C)NC(=O)[C@H](C)OC(=O)[C@@H](C(C)C)NC(=O)[C@@H](C(C)C)OC1=O` [valinomycin]: in the data set on cancer cell lines [1], the “capacity to reduce chromatin folding (D↓, Σ↓)” value is on record as “reduce chromatin folding” and the “regulation of chromatin topology / heterogeneity” value was “potent regulators of chromatin topology; also recorded: global regulators of chromatin heterogeneity”.

For `CCOc1ccc(-c2nc3ccc(-c4nc5ccc(N6CCN(C)CC6)cc5[nH]4)cc3[nH]2)cc1` [Hoechst 33342], in the data set on HeLa cells [5] (Hoechst-stained, after a few seconds of UV exposure (excitation)), the “decrease in mean-nuclear Σ” value was 17.01%. Moreover, in the data set with CHO cells [6] (Hoechst-stained, after UV exposure (excitation)), the “change (decrease) in mean-nuclear Σ” value is −7.1%. In the data set with HeLa cells [7], the γ-H2A.X antibody accumulation entry was “drastic accumulation”.

For the compound `O=C(O[C@@H]1Cc2c(O)cc(O)cc2O[C@@H]1c1cc(O)c(O)c(O)c1)c1cc(O)c(O)c(O)c1` [EGCG], in the data set on cancer cell lines [1], the “capacity to reduce chromatin folding (D↓, Σ↓)” value is given as “reduce chromatin folding”.

As to `COc1cc(/C=C/C(=O)CC(=O)/C=C/c2ccc(O)c(OC)c2)ccc1O` [Curcumin], in the data set on cancer cell lines [1], the “capacity to reduce chromatin folding (D↓, Σ↓)” value is recorded as “reduce chromatin folding”.

For the compound `CC(=O)O[C@@]12CO[C@@H]1C[C@H](O)[C@@]1(C)C(=O)[C@H](O)C3=C(C)[C@@H](OC(=O)[C@H](O)[C@@H](NC(=O)OC(C)(C)C)c4ccccc4)C[C@@](O)([C@@H](OC(=O)c4ccccc4)[C@H]21)C3(C)C` [Docetaxel], the “% Inhibition” value stood at 65% in the data set on MES-SA and 79% in the data set with MES-SA MX2. Moreover, the “structural alteration of chromatin folding” value with cancer cell lines [1] is “increases”.

As for `Nc1ccn([C@@H]2O[C@H](CO)[C@@H](O)C2(F)F)c(=O)n1` [gemcitabine], in data set [2], the tumor size result is on record as “continued to expand in size”.

`N#CC(C#N)=NNc1cccc(Cl)c1` [CCCP, carbonyl cyanide m-chlorophenyl hydrazone]: the “decrease in mean-nuclear Σ” value in the data set with HeLa cells [5] (10 μM CCCP, 15 minutes) is recorded as 10%. In the data set on CHO cells [6] (10 μM CCCP, 15 minutes), the “change in mean-nuclear Σ” value was “no significant increase”. Further, in the data set with HeLa cells [8], the “decrease in TMRE fluorescence” value stood at 10 fold and the “ΔΨm as gauged by TMRE fluorescence” value is recorded as “rapidly lost ΔΨm”. Moreover, the “change in TMRE fluorescence” value in the data set on CHO cells [9] is “no significant change”. Besides, the “regulation of chromatin topology / heterogeneity” value with cancer cell lines [1] was “potent regulators of chromatin topology; also recorded: global regulators of chromatin heterogeneity”.

A word on the % Inhibition: it is the percentage by which the read-out fell short of the control.
